Results taken from US10729810B2, “Methods, systems, and compositions for promoting bone growth” (Cayman Chemical Company, Inc., priority 2013, dated 2020).

Tests used:
[1] = target: T1, Human Prostanoid EP4 Receptor (Homo sapiens, UniProt P35408); assay: Radioligand binding assay, agonist site of human prostanoid EP4 receptor in transfected HEK-293 cells; settings: for hEP4 receptor binding, % @100: @100, printed in the IC50 (nM) column
T1 construct: expressed in transfected cells; host or cells: HEK-293 cells (membrane homogenates)
Procedure: Radioligand Binding Assay for the Evaluation of the Affinity of Compounds for the Agonist Site of the Human Prostanoid EP4 Receptor in Transfected HEK-293 Cells
Following incubation, the samples are filtered rapidly under vacuum through glass fiber filters (GF/B, Packard) presoaked with 0.3% PEI and rinsed several times with ice-cold 50 mM Tris-HCl using a 96-sample cell harvester (Unifilter, Packard). The filters are dried then counted for radioactivity in a scintillation counter (Topcount, Packard) using a scintillation cocktail (Microscint 0, Packard).

rat calvarial defect = assay: Rat calvarial defect model, drug in calcium phosphate cement suspended in demineralized bone matrix putty; format: in vivo, female Sprague Dawley rats; settings: 2.6 mm defect; 3 μg/ml to 3 mg/ml in cement-DBM putty 1:8; eight weeks; FIG. 1
Procedure: The rat calvarial defect model is a widely used model through which the ability of a treatment agent to induce bone formation is assessed (Aghaloo et al., The effect of NELL1 and bone morphogenetic protein-2 on calvarial bone regeneration, J. Oral Maxillofac. Surg. 2010: 68:300-308; Mark et al., Repair of calvarial nonunions by osteogenin, a bone-inductive protein, Plast. Reconstr. Surg. 1990: 86:623-30).
Bone defects are created by removal of bone from the cranium of female Sprague Dawley rats by a bone trephine (cranial defect). Cranial defects are 2.6 mm in diameter and the cranium approximately 1 mm thick. A matrix of approximately 2 mm thickness is applied to the defect. Thus the dosing volume for each defect is calculated as π*r^2*matrix thickness=3.14*1.3^2*2=10.61 μl and rounded to 11 μl for purposes of dose calculation.
EXAMPLE 2C is tested at seven doses with five rats in each group. These are 3, 10, 30, 100 and 300 μg/ml and 1 and 3 mg/ml. A negative control group treated with dosing matrix containing no drug (Vehicle) as well as a positive control group treated with 50 μg/ml recombinant human bone morphogenetic protein 2 (BMP-2) are also included in the study. […]
The area measured each week is compared to that of the first week and the degree of repair calculated by the following formula: (original area−current area)/original area*100 […]

osteoporotic femur = assay: Bone density of osteoporotic femur after osteotomy with drug-cement insert in ovariectomized rats; format: in vivo, Female Sprague Dawley rats; settings: 100 μg/gm or 300 μg/gm cement insert; twenty weeks; FIG. 6
Procedure: Dosing solutions are made from a 5 mg/ml Example 2E' stock which is made by dissolving 2.08 mg of neat Example 2E' in 416 μl of 100% ethanol. The dosing solution for Example 2E' was made by adding 44.4 μL of the 5 mg/ml stock to 22.2 mg of calcium phosphate cement powder. The Vehicle dosing solution was made by adding 50.4 μl of ethanol containing no Example 2E' to 25.2 mg of calcium phosphate cement powder. After the ethanol has been vented off, the cement is wetted with a setting solution and mixed thoroughly for 1 minute as the cement begins to set. The cement is separated into five aliquots and placed on a glass microscope slide. […] After obtaining the CT image the cross sectional density of the bone 3 mm dorsal to the implant site is measured in three places and the measurements averaged. The density of the phantom is measured at the same time and is compared to the phantom measurement on week 0. […] For example the density of the femur of a vehicle treated rat imaged on week 0 is measured at 3028, 3597 and 3329 units (average=3318) and the phantom measured 4209 units. […] The relative density on bone at week 3 compared to week 0 is then calculated as: average week 3normalized/average week 0*100=3378/3318*100=101.8% The mean change in bone density of both groups after three weeks of treatment is shown in FIG. 5. […]

T1 sequence (P35408 whole entry): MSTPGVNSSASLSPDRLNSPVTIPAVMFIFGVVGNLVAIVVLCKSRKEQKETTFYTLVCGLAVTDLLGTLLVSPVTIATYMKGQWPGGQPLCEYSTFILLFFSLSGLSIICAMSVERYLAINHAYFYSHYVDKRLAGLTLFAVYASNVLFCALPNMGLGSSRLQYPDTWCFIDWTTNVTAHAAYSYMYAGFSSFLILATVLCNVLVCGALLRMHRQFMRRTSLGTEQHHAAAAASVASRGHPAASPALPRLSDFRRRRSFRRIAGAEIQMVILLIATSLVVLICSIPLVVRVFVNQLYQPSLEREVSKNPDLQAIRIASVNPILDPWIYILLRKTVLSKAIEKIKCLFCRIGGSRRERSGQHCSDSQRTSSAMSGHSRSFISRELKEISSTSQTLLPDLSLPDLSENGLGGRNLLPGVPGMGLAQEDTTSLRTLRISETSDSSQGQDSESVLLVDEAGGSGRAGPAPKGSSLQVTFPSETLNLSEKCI

SMILES: CCCC#CCC(C)[C@H](O)/C=C/[C@H]1CCC(=O)N1CCCCCCC(=O)O (mixture of isomers) [3C′, 7-((2R)-2-((3S,4R/S,E)-3-hydroxy-4-methyldec-1-en-6-yn-1-yl)-5-oxopyrrolidin-1-yl)heptanoic acid]
- melting point: 104 to 105 °C

SMILES: CC#CCC(C)[C@H](O)/C=C/[C@H]1CCC(=O)N1CCCCCCC(=O)O (mixture of isomers) [Example 1C′, 7-((2R)-2-((3S,4R/S,E)-3-hydroxy-4-methyloct-1-en-6-yn-1-yl)-5-oxopyrrolidin-1-yl)heptanoic acid]
- hEP4 receptor binding, % @100 [1]: 86% @100

SMILES: CC#CCC(C)[C@@H](O)/C=C/[C@H]1CCC(=O)N1CCCCCCC(=O)O (mixture of isomers) [Example 1D′, 7-((2R)-2-((3R,4R/S,E)-3-hydroxy-4-methyloct-1-en-6-yn-1-yl)-5-oxopyrrolidin-1-yl)heptanoic acid]
- hEP4 receptor binding, % @100 [1]: 11% @100

SMILES: CCC#CC[C@H](C)[C@H](O)/C=C/[C@H]1CC(F)(F)C(=O)N1CCCCCCC(=O)O [Example 2C, 7-((R)-3,3-difluoro-5-((3S,4S,E)-3-hydroxy-4-methylnon-1-en-6-yn-1-yl)-2-oxopyrrolidin-1-yl)heptanoic acid]
- Healing of a calvarial bone defect (rat calvarial defect): Accelerated Healing

SMILES: C[C@@H](CCCc1ccccc1)[C@H](O)/C=C/[C@H]1CC(F)(F)C(=O)N1CCCCCCC(=O)O [Example 6D, 7-((R)-3,3-difluoro-5-((3S,4S,E)-3-hydroxy-4-methyl-7-phenylhept-1-en-1-yl)-2-oxopyrrolidin-1-yl)heptanoic acid]
- IC50 ([1]; 0.5 nM [3H]PGE2, HEK-293 cell membrane homogenates, read-out: hEP4 receptor binding (nM) IC50): 2.4 nM
- Ki ([1]; 0.5 nM [3H]PGE2, HEK-293 cell membrane homogenates, read-out: hEP4 receptor binding (nM) Ki): 0.89 nM

SMILES: C[C@@H](CCCc1ccccc1)[C@H](O)/C=C/[C@H]1CC(F)(F)C(=O)N1CCCc1ccc(C(=O)O)s1 [Example 28C, 5-(3-((R)-3,3-difluoro-5-((3S,4S,E)-3-hydroxy-4-methyl-7-phenylhept-1-en-1-yl)-2-oxopyrrolidin-1-yl)propyl)thiophene-2-carboxylic acid]
- Bone density of osteoporotic femur (osteoporotic femur): Increased Bone Density
